Reference: publication PMC5344293, “A phase 1 dose-escalation and expansion study of binimetinib (MEK162), a potent and selective oral MEK1/2 inhibitor” (British Journal of Cancer, 2017)
pIC50: −log10 of the molar value. “Also recorded” adds a separate entry of the source. Read-outs that look alike come from different tables or passages of the source.

Assays:
[1] = test system: pERK; test: Skin punch biopsy pERK immunohistochemistry; format: in vivo, human; settings: cycle 1 day 15
Description: (§1) Skin punch biopsies (with hair follicles, if feasible) were obtained from patients in the dose-escalation phase and colorectal cancer expansion phase cohorts pre-dose at baseline and post dose within 7 days of cycle 1 day 15 for measurement of Ki67 and pERK expression. Ki67 and pERK expression were determined by immunohistochemistry using a Ki67 rabbit monoclonal antibody (clone 30-9; Ventana Medical Systems, Inc., Tucson, AZ, USA) and a pERK rabbit monoclonal antibody (Thr202/Tyr204, clone 20G11; Cell Signaling Technology, Inc., Danvers, MA), respectively, visualised with DAB and counterstained with haematoxylin. Ki67 was expressed as percentage of tumour cells with positive stain; pERK was expressed as an H-score.

[2] = test system: Ki67; test: Skin punch biopsy Ki67 immunohistochemistry; format: in vivo, human; settings: cycle 1 day 15
Description: as §1

[3] = test system: biliary cancer, KRAS- or BRAF-mutant colorectal cancer; test: Kaplan–Meier PFS and OS, expansion phase cohorts; format: in vivo, human
Description: All patients who received ⩾1 dose of binimetinib were included in the safety analysis. Patients in the safety analysis who had ⩾1 measurable lesion at baseline and at least 1 post-baseline disease assessment were evaluable for efficacy. Kaplan–Meier estimates of progression-free survival (PFS) and overall survival (OS) were performed for patients in the expansion phase ([Kaplan and Meier, 1958]) using SAS Version 9.2 (SAS Institute Inc., Cary, NC, USA).

[4] = biological target: purified MEK enzyme; design: method as in Lee et al, 2010; Woessner et al, 2010; settings: ref Lee et al, 2010, Woessner et al, read-out: half-maximal inhibitory concentration; cited from earlier work
[5] = Plasma pharmacokinetics in patients; format: in vivo, human; settings: for RAUC (accumulation ratio) / Cmax / AUC(0-t): geometric mean (% CV); for Cmax / AUC(0-t) / Tmax: human, plasma, oral
Description: Blood for plasma binimetinib and metabolite concentration assessments was collected on cycle 1 day 1 (pre-dose and 30 min to 24 h post dose), cycle 1 day 15 (pre-dose and 30 min to 8 h post dose), and cycles 2 to 8 day 1 (pre-dose) from patients in the dose-escalation phase and from selected patients in the biliary cancer cohort of the expansion phase (intensive pharmacokinetic sampling). The remaining patients in the expansion phase underwent limited pharmacokinetic sampling on cycle 1 day 1 (pre-dose), cycle 1 day 8 (pre-dose), cycle 1 day 15 (pre-dose and 30 min to 8 h post dose), cycle 2 day 1 (pre-dose), cycle 3 day 1 (pre-dose and 30 min to 8 h post dose), and cycles 4–8 day 1 (pre-dose). Standard non-compartmental pharmacokinetic parameters were calculated on serial pharmacokinetic collection days (cycle 1 day 1 and cycle 1 day 15 for the dose-escalation phase; cycle 1 day 15 and cycle 3 day 1 for the expansion phase) for each patient and summarised by cohort. Dose proportionality, accumulation, and metabolite-to-parent ratio were assessed as appropriate.

[6] = BRAF-mutant colorectal cancer cohort (45 mg BID)
[7] = KRAS-mutant colorectal cancer 45 mg dose cohort
[8] = KRAS-mutant colorectal cancer 60 mg dose cohort

Compound: Cn1cnc2c(F)c(Nc3ccc(Br)cc3F)c(C(=O)NOCCO)cc21 [binimetinib]
- Skin expression of pERK, median (range) percent of baseline ([1]; 30 mg BID (n=4)): 88 (50–100) percent of baseline
- Skin expression of pERK, median (range) percent of baseline ([1]; 45 mg BID (n=22)): 66 (38–189) percent of baseline
- Skin expression of pERK, median (range) percent of baseline ([1]; 60 mg BID (n=7)): 59 (29–72) percent of baseline
- Skin expression of pERK, median (range) percent of baseline ([1]; Total (N=33)): 64 (29–189) percent of baseline
- Skin expression of Ki67, median (range) percent of baseline ([2]; 30 mg BID (n=4)): 44 (25–56) percent of baseline
- Skin expression of Ki67, median (range) percent of baseline ([2]; 45 mg BID (n=22)): 33 (6–300) percent of baseline
- Skin expression of Ki67, median (range) percent of baseline ([2]; 60 mg BID (n=7)): 31 (17–100) percent of baseline
- Skin expression of Ki67, median (range) percent of baseline ([2]; Total (N=33)): 33 (6–300) percent of baseline
- Median OS [3, 6]: 7.1 months
- Median PFS [3, 6]: 1.4 months
- Median OS [3, 7]: 4.7 months
- Median PFS [3, 7]: 1.5 months
- Median OS [3, 8]: 9.1 months
- Median PFS [3, 8]: 3.5 months
- Median OS ([3]; biliary cohort (60 mg BID)): 4.8 months
- Median PFS ([3]; biliary cohort (60 mg BID)): 2.1 months
- pIC50 [4]: 7.92
- RAUC (accumulation ratio) ([5]; cycle 1 day 15, Total (N=26)): 1.44 (32.8)
- RAUC (accumulation ratio) ([5]; cycle 1 day 15, expansion Biliary 60 mg BID (n=7)): 2.50 (NC)
- Cmax ([5]; 30 mg BID, cycle 1 day 1, dose-escalation 30 mg BID (n=4)): 327 ng/mL
- AUC(0-t) ([5]; 30 mg BID, cycle 1 day 1, dose-escalation 30 mg BID (n=4), intensive sampling, read-out: AUC0–8): 1000 ng·h/mL
- Tmax ([5]; 30 mg BID, cycle 1 day 1, dose-escalation 30 mg BID (n=4), median (minimum–maximum), read-out: tmax): 1.51 h
- Tmax ([5]; 30 mg BID, cycle 1 day 15, dose-escalation 30 mg BID (n=4), median (minimum–maximum), read-out: tmax): 1.5 h
- Cmax ([5]; 30 mg, cycle 1 day 15, dose-escalation 30 mg BID (n=4)): 417 ng/mL
- Cmax ([5]; 45 mg BID, cycle 1 day 1, dose-escalation 45 mg BID (n=4)): 241 ng/mL
- AUC(0-t) ([5]; 45 mg BID, cycle 1 day 1, dose-escalation 45 mg BID (n=4), intensive sampling, read-out: AUC0–8): 964 ng·h/mL
- Tmax ([5]; 45 mg BID, cycle 1 day 1, dose-escalation 45 mg BID (n=4), median (minimum–maximum), read-out: tmax): 2.53 h
- Tmax ([5]; 45 mg BID, cycle 1 day 15, dose-escalation 45 mg BID (n=4), median (minimum–maximum), read-out: tmax): 2 h
- Cmax ([5]; 45 mg, cycle 1 day 15, dose-escalation 45 mg BID (n=4)): 273 ng/mL
- AUC(0-t) ([5]; 45 mg, cycle 1 day 15, dose-escalation 45 mg BID (n=4), read-out: AUC0-8): 1490 ng·h/mL
- Cmax ([5]; 60 mg BID, cycle 1 day 1, dose-escalation 60 mg BID (n=7)): 545 ng/mL
- AUC(0-t) ([5]; 60 mg BID, cycle 1 day 1, dose-escalation 60 mg BID (n=7), intensive sampling, read-out: AUC0–8): 1710 ng·h/mL
- Tmax ([5]; 60 mg BID, cycle 1 day 1, dose-escalation 60 mg BID (n=7), median (minimum–maximum), read-out: tmax): 1 h
- Tmax ([5]; 60 mg BID, cycle 1 day 15, dose-escalation 60 mg BID (n=7), median (minimum–maximum), read-out: tmax): 3 h
- Cmax ([5]; 60 mg, cycle 1 day 1, expansion Biliary 60 mg BID (n=7)): 365 ng/mL
- AUC(0-t) ([5]; 60 mg, cycle 1 day 1, expansion Biliary 60 mg BID (n=7), intensive sampling, read-out: AUC0–8): 1090 ng·h/mL
- Tmax ([5]; 60 mg, cycle 1 day 1, expansion Biliary 60 mg BID (n=7), median (minimum–maximum), read-out: tmax): 1.5 h
- Cmax ([5]; 60 mg, cycle 1 day 15, dose-escalation 60 mg BID (n=7)): 512 ng/mL
- AUC(0-t) ([5]; 60 mg, cycle 1 day 15, dose-escalation 60 mg BID (n=7), read-out: AUC0-8): 1820 ng·h/mL
- Cmax ([5]; 60 mg, cycle 1 day 15, expansion Biliary 60 mg BID (n=7)): 594 ng/mL
- AUC(0-t) ([5]; 60 mg, cycle 1 day 15, expansion Biliary 60 mg BID (n=7), read-out: AUC0-8): 3760 ng·h/mL
- Tmax ([5]; 60 mg, cycle 1 day 15, expansion Biliary 60 mg BID (n=7), median (minimum–maximum), read-out: tmax): 1.5 h
- Cmax ([5]; 80 mg BID, cycle 1 day 1, dose-escalation 80 mg BID (n=4)): 687 ng/mL
- AUC(0-t) ([5]; 80 mg BID, cycle 1 day 1, dose-escalation 80 mg BID (n=4), intensive sampling, read-out: AUC0–8): 2220 ng·h/mL
- Tmax ([5]; 80 mg BID, cycle 1 day 1, dose-escalation 80 mg BID (n=4), median (minimum–maximum), read-out: tmax): 2.02 h
- Tmax ([5]; across all dose levels and both sampling schemes, read-out: tmax, median values): 0.5 to 4 h
- Tmax ([5]; cycle 1 day 1, Total (N=26), median (minimum–maximum), read-out: tmax): 1.5 h
- Tmax ([5]; cycle 1 day 15, Total (N=26), median (minimum–maximum), read-out: tmax): 1.5 h
- Pre-dose concentrations on cycle 1 day 15 versus 12 h concentrations on day 1 ([5]; intensive pharmacokinetic sampling): up to threefold higher
- Steady state ([5]; limited sampling, 45 and 60 mg BID, no formal steady-state analysis): likely at steady state by cycle 1 day 15
- Dose proportionality of exposure ([5]; over the dose range tested, days 1 and 15 of cycle 1): Dose-proportional increases; also recorded: approximately dose proportional
